These results are taken from ChEMBL document CHEMBL3045255, “Novel quinolyl-thienyl chalcones and their 2-pyrazoline derivatives with diverse substitution pattern as antileishmanial agents against Leishmania major” (Med Chem Res, 2012).

Values after ≈ are worked out from the molar mass of the structure shown.

For the assay, the system named is Leishmania major. Nature of the assay: Antileishmanial activity against promastigotes form of Leishmania major after 72 hr by cell counting using neubaur chamber. Format: functional, organism-based.
In general, IC50 refers to the concentration at which inhibition is half-maximal. Lower therefore signals greater potency in that assay. As to `Cc1ccc2cc(/C=C/C(=O)c3ccsc3)c(Cl)nc2c1`, the IC50 came out at 0.88 µg/mL (≈ 2.8 µM).
On to `Cc1ccc2cc(/C=C/C(=O)c3sccc3C)c(Cl)nc2c1`, for which 0.92 µg/mL (≈ 2.81 µM) corresponded to half-maximal inhibition (IC50).
Then `Cc1csc(C(=O)/C=C/c2cc3ccc(C)cc3nc2Cl)c1`, with 0.83 µg/mL (≈ 2.53 µM).
As to `Cc1ccc2cc(/C=C/C(=O)c3ccc(C)s3)c(Cl)nc2c1`, the IC50 was determined as 0.74 µg/mL (≈ 2.26 µM).
`Cc1ccc2cc(/C=C/C(=O)c3cc(C)sc3C)c(Cl)nc2c1` showed an IC50 of 0.62 µg/mL (≈ 1.81 µM).
`Cc1ccc2cc(/C=C/C(=O)c3sccc3Cl)c(Cl)nc2c1` gave an IC50 of 0.59 µg/mL (≈ 1.69 µM).
`Cc1ccc2cc(/C=C/C(=O)c3ccc(Cl)s3)c(Cl)nc2c1` returned an IC50 of 0.81 µg/mL (≈ 2.33 µM).
Turning to `Cc1ccc2cc(/C=C/C(=O)c3cc(Cl)sc3Cl)c(Cl)nc2c1`, the IC50 amounted to 0.78 µg/mL (≈ 2.04 µM).
Then `Cc1ccc2cc(/C=C/C(=O)c3sccc3Br)c(Cl)nc2c1`, with 0.71 µg/mL (≈ 1.81 µM); and `Cc1ccc2cc(/C=C/C(=O)c3ccc(Br)s3)c(Cl)nc2c1`, with 0.91 µg/mL (≈ 2.32 µM); and `Cc1ccc2cc(/C=C/C(=O)c3ccc(I)s3)c(Cl)nc2c1`, with 0.84 µg/mL (≈ 1.91 µM).
To `Cc1cccc2cc(/C=C/C(=O)c3ccsc3)c(Cl)nc12` belongs 0.61 µg/mL (≈ 1.94 µM); to `Cc1ccsc1C(=O)/C=C/c1cc2cccc(C)c2nc1Cl`, 0.94 µg/mL (≈ 2.87 µM); to `Cc1csc(C(=O)/C=C/c2cc3cccc(C)c3nc2Cl)c1`, 0.59 µg/mL (≈ 1.8 µM).
The molecule `Cc1ccc(C(=O)/C=C/c2cc3cccc(C)c3nc2Cl)s1` had an IC50 of 0.61 µg/mL (≈ 1.86 µM).
In turn, `Cc1cc(C(=O)/C=C/c2cc3cccc(C)c3nc2Cl)c(C)s1` showed an IC50 of 0.73 µg/mL (≈ 2.14 µM).
Then `Cc1cccc2cc(/C=C/C(=O)c3sccc3Cl)c(Cl)nc12`, with 0.78 µg/mL (≈ 2.24 µM); and `Cc1cccc2cc(/C=C/C(=O)c3ccc(Cl)s3)c(Cl)nc12`, with 0.65 µg/mL (≈ 1.87 µM).
To `Cc1cccc2cc(/C=C/C(=O)c3cc(Cl)sc3Cl)c(Cl)nc12` belongs 0.85 µg/mL (≈ 2.22 µM).
The molecule `Cc1cccc2cc(/C=C/C(=O)c3sccc3Br)c(Cl)nc12` yielded an IC50 of 0.93 µg/mL (≈ 2.37 µM).
Then `Cc1cccc2cc(/C=C/C(=O)c3ccc(Br)s3)c(Cl)nc12`, with 0.78 µg/mL (≈ 1.99 µM).
`Cc1cccc2cc(/C=C/C(=O)c3ccc(I)s3)c(Cl)nc12`: the IC50 worked out at 0.67 µg/mL (≈ 1.52 µM).
For the molecule `Cc1ccc2cc(C3CC(c4ccc(Br)s4)=NN3)c(Cl)nc2c1` (centres undefined), the IC50 amounted to 0.93 µg/mL (≈ 2.29 µM).
Then `Cc1ccc2cc(C3CC(c4ccc(I)s4)=NN3)c(Cl)nc2c1` (centres undefined), with 0.88 µg/mL (≈ 1.94 µM).
`Cc1cccc2cc(C3CC(c4ccsc4)=NN3)c(Cl)nc12` (centres undefined) yielded an IC50 of 0.67 µg/mL (≈ 2.04 µM).
To `Cc1ccsc1C1=NNC(c2cc3cccc(C)c3nc2Cl)C1` (centres undefined) belongs 0.78 µg/mL (≈ 2.28 µM).
The molecule `Cc1csc(C2=NNC(c3cc4cccc(C)c4nc3Cl)C2)c1` (centres undefined) yielded an IC50 of 0.74 µg/mL (≈ 2.16 µM).
The molecule `Cc1ccc(C2=NNC(c3cc4cccc(C)c4nc3Cl)C2)s1` (centres undefined) returned an IC50 of 0.89 µg/mL (≈ 2.6 µM).
Regarding `Cc1cc(C2=NNC(c3cc4cccc(C)c4nc3Cl)C2)c(C)s1` (centres undefined), the IC50 was determined as 0.93 µg/mL (≈ 2.61 µM).
Take `Cc1cccc2cc(C3CC(c4sccc4Cl)=NN3)c(Cl)nc12` (centres undefined): the IC50 was found to be 0.84 µg/mL (≈ 2.32 µM).
`Cc1cccc2cc(C3CC(c4ccc(Cl)s4)=NN3)c(Cl)nc12` (centres undefined): the IC50 worked out at 0.75 µg/mL (≈ 2.07 µM).
`Cc1cccc2cc(C3CC(c4cc(Cl)sc4Cl)=NN3)c(Cl)nc12` (centres undefined): the IC50 turned out to be 0.79 µg/mL (≈ 1.99 µM).
Molecule `Cc1cccc2cc(C3CC(c4sccc4Br)=NN3)c(Cl)nc12` (centres undefined) gave an IC50 of 0.94 µg/mL (≈ 2.31 µM).
To `Cc1cccc2cc(C3CC(c4ccc(Br)s4)=NN3)c(Cl)nc12` (centres undefined) belongs 0.93 µg/mL (≈ 2.29 µM); to `Cc1cccc2cc(C3CC(c4ccc(I)s4)=NN3)c(Cl)nc12` (centres undefined), 0.77 µg/mL (≈ 1.7 µM); to `Cc1ccc2cc(C3CC(c4ccsc4)=NN3)c(Cl)nc2c1` (centres undefined), 0.94 µg/mL (≈ 2.87 µM).
As for `Cc1ccc2cc(C3CC(c4sccc4C)=NN3)c(Cl)nc2c1` (centres undefined), inhibition was half-maximal at 0.76 µg/mL (≈ 2.22 µM) (IC50).
Then `Cc1csc(C2=NNC(c3cc4ccc(C)cc4nc3Cl)C2)c1` (centres undefined), with 0.87 µg/mL (≈ 2.54 µM).
To `Cc1ccc2cc(C3CC(c4ccc(C)s4)=NN3)c(Cl)nc2c1` (centres undefined) belongs 0.89 µg/mL (≈ 2.6 µM); to `Cc1ccc2cc(C3CC(c4cc(C)sc4C)=NN3)c(Cl)nc2c1` (centres undefined), 0.76 µg/mL (≈ 2.14 µM); to `Cc1ccc2cc(C3CC(c4sccc4Cl)=NN3)c(Cl)nc2c1` (centres undefined), 0.78 µg/mL (≈ 2.15 µM).
To `Cc1ccc2cc(C3CC(c4ccc(Cl)s4)=NN3)c(Cl)nc2c1` (centres undefined) belongs 0.83 µg/mL (≈ 2.29 µM); to `Cc1ccc2cc(C3CC(c4cc(Cl)sc4Cl)=NN3)c(Cl)nc2c1` (centres undefined), 0.71 µg/mL (≈ 1.79 µM); to `Cc1ccc2cc(C3CC(c4sccc4Br)=NN3)c(Cl)nc2c1` (centres undefined), 0.85 µg/mL (≈ 2.09 µM).
